From publication PMC9605374 (Marine Drugs, 2022)
Like-named read-outs stand apart in the source and are kept apart here. Blank lines part the entries; values can stand above or below the compound they belong to.

Columns and labels:
HeLa cells = system: HeLa cells; parameters: method as in PMID 28051860; details: cited from earlier work
22Rv1 cells [1] = assay: Annexin-V-FITC/PI double staining, flow cytometry; assay type: cell-based, human; details: 22Rv1, zVAD 100 µM 1 h pretreatment, 48 h
Procedure: Figure 4 Investigation of the proapoptotic activity of NB. Flow cytometry analysis of 22Rv1 cells after 48 h of treatment. (A) Cell cycle and DNA fragmentation analysis. Treated cells were stained with PI and analyzed using a flow cytometry technique. Sub-G1 population was assumed to be apoptotic cells containing fragmentated DNA. (B) Analysis of phosphatidylserine externalization. Treated cells were double-stained with annexin-V-FITC and PI and analyzed using the flow cytometry technique. Cells of the low left quadrant (annexin-V-FITC^−/PI^−) were considered as alive cells. The Cell Quest Pro v.5.2.1 software (BD Bioscience, San Jose, CA, USA) was used to analyze and quantify the FACS data. Cells treated for 48 h with 10 µM of anisomycin were used as a positive control. Number of replicates n = 3. Statistical significance: * p < 0.05 (ANOVA). […]
Externalization of phosphatidylserine is a distinct marker of apoptotic cell death that can be detected by flow cytometry using annexin-V-FITC and propidium iodide (PI) double staining. […] Cells were harvested utilizing trypsin, stained with annexin-V-FITC and propidium iodide, and analyzed using FACS Calibur (BD Bioscience, San Jose, CA, USA).

22Rv1 cells [2] = assay: Drug combination study NB with MAPK inhibitors, MTT assay, SynergyFinder 2.0; assay type: cell-based; details: Homo sapiens, MTT
Text: Whether activation of MAPKs contribute to cell death or survival depends not only on the cellular context, but also on the nature of the activating stimuli. Thus, to reveal the function of JNK1/2 and p38 in the anticancer effect of NB, we co-treated 22Rv1 cells with NB and specific inhibitors of the above-mentioned MAPKs. […] As MEK1/2 kinase directly and exclusively activates ERK1/2, PD98039 inhibitor is often used as an ERK1/2 inhibitor [38]. Thus, an inactivation of MEK1/2 leads solely to an inhibition of ERK1/2 [38]. Since the inhibitors themselves exert cytotoxic effects in cancer cells, we used a Chou–Talalay method to distinguish between synergism, additive effects, or antagonistic effects of the particular MAPK inhibitor on the compound bioactivity. For this, using an MTT assay, we determined a cytotoxic effect on various concentrations of NB, MAPK inhibitors, and their combinations in 22Rv1 cells. The viability data were further analyzed using the SynergyFinder v. 2.0 software (Network Pharmacology for Precision Medicine in the Research Program of System Oncology, Faculty of Medicine at University of Helsinki, Helsinki, Finland) and a Zero interaction potency (ZIP) reference model (Figure 7).
(§1) The experiments were carried out as previously reported. […] 22Rv1 cells (6 × 10^3 cells/well in 96-well plates) were simultaneously treated with NB and docetaxel; or pretreated with MAPK inhibitors for 1 h following treatment with NB in the total media volume of 100 µL/well. Following 24 h of incubation, the viability of the cells treated with individual drugs as well as their combinations was determined using MTT assay. […] Red areas (positive δ-values) and green areas (negative δ-values) indicate synergism and antagonism, respectively.

noncancer cells = assay: MTT assay, mean IC50 in noncancer cell panel; assay type: cell-based; details: Homo sapiens, mean over PNT2, RWPE-1, HEK293, MRC-9, 48 h
Text: (§2) To examine the anticancer potential and selectivity of NB, we used a panel of six human prostate cancer cell lines, harboring different levels of treatment resistance to representatively reflect the heterogeneity of the disease. […] Additionally, four human noncancer cells lines were utilized in order to determine the selectivity of NB towards prostate cancer cells, i.e., prostate noncancer PNT2 and RWPE-1 cells, human embryonic kidney HEK 293T cells, and human fibroblasts MRC-9. The different cell lines were treated with NB and the cell viability was examined using MTT assay (Figure 1). The mean IC50 of NB and docetaxel (used as a reference substance) in noncancerous cell lines was divided by the mean IC50 in the prostate cancer cell lines to determine the selectivity index (SI).
The MTT assay was used to monitor the effect of the drugs on cell viability in terms of metabolic activity, as previously reported. First, preincubation of the cells in 96-well plates (6 × 10^3 cells/well in 100 μL/well) was performed overnight in the correspondent culture medium. Next, the medium was exchanged for fresh medium containing the investigated compounds or a vehicle (100 μL/well). […] Finally, 50 μL/well of DMSO were added to solve the formed formazan crystals produced by the metabolic active cells and Infinite F200PRO reader (TECAN, Männedorf, Switzerland) was used to measure the cell viability. […]

PC3-DR cells [3] = assay: Drug combination study NB with docetaxel, MTT assay, SynergyFinder 2.0; assay type: cell-based; details: Homo sapiens, PC3-DR, NB 0, 24 h, MTT
Procedure: Thus, drug-resistant PC3-DR cells were treated with docetaxel in combination with NB (Figure 9). Potential synergism between NB and docetaxel was measured by the Chou–Talalay method as described before.
Figure 9 Combinational treatment on PC3-DR cells with NB and docetaxel. […] MTT assay was used to examine cellular viability. Number of replicates n = 3. (A) The heatmap represents cytotoxicity (viability inhibition) of the individual drugs or their combinations. (B,C) To calculate and visualize in 2D (B) or 3D (C) the effect of the drug combination (synergism/additive effect/antagonism), the SynergyFinder v. 2.0 software (Network Pharmacology for Precision Medicine in the Research Program of System Oncology, Faculty of Medicine at University of Helsinki, Helsinki, Finland) and a ZIP reference model were used. Green regions indicate antagonism, white regions refer to additive effect, and red regions indicate synergism.
as §1

prostate cancer cells = assay: MTT assay, mean IC50 in cancer cell panel and selectivity index; assay type: cell-based, human
Text: as §2
(§3) The MTT assay was used to monitor the effect of the drugs on cell viability in terms of metabolic activity, as previously reported. First, preincubation of the cells in 96-well plates (6 × 10^3 cells/well in 100 μL/well) was performed overnight in the correspondent culture medium. Next, the medium was exchanged for fresh medium containing the investigated compounds or a vehicle (100 μL/well). Cells were then incubated for 48 h, unless otherwise stated. Then, 10 μL/well of 3-(4,5-dimethylthiazol-2-yl)-2,5-diphenyltetrazolium bromide reagent (MTT, 5 mg/mL) were added. After 2–4 h of additional incubation the media was removed, and the plates were dried. Finally, 50 μL/well of DMSO were added to solve the formed formazan crystals produced by the metabolic active cells and Infinite F200PRO reader (TECAN, Männedorf, Switzerland) was used to measure the cell viability. The results were proceeded with a GraphPad Prism software v.9.1.1 (GraphPad Software, San Diego, CA, USA). Cells treated with the solvent of the drugs alone were used as a control (100% alive cells). The effect of the drugs on cell viability is represented as IC50.

PC3-DR cells [4] = details: PC3-DR vs PC3; cited from earlier work
HEK293 = assay: MTT assay, cell viability; assay type: cell-based; details: Homo sapiens, HEK293, 48 h of treatment, mean ± SD
Text: as §2, §3

RWPE-1 = assay: MTT assay, cell viability; assay type: cell-based; details: Homo sapiens, RWPE-1, 48 h of treatment, mean ± SD
Text: as §2, §3

PNT2 = assay: MTT assay, cell viability; assay type: cell-based; details: Homo sapiens, PNT2, 48 h of treatment, mean ± SD
Text: as §2, §3

DU145 = assay: MTT assay, cell viability; assay type: cell-based; details: Homo sapiens, DU-145, DU145, 48 h of treatment, mean ± SD
Text: as §2, §3

MRC-9 = assay: MTT assay, cell viability; assay type: cell-based; details: Homo sapiens, MRC9, MRC-9, 48 h of treatment, mean ± SD
Text: as §2, §3

VCaP = assay: MTT assay, cell viability; assay type: cell-based; details: Homo sapiens, 48 h of treatment, mean ± SD
Text: as §2, §3

PC3 = assay: MTT assay, cell viability; assay type: cell-based; details: Homo sapiens, PC-3, PC3, 48 h of treatment, mean ± SD
Text: as §2, §3

22Rv1 = assay: MTT assay, cell viability; assay type: cell-based; details: Homo sapiens, 22Rv1, 48 h of treatment, mean ± SD
Text: as §2, §3

PC3-DR = assay: MTT assay, cell viability; assay type: cell-based, human; details: Homo sapiens, PC3-DR, 48 h of treatment, mean ± SD
Text: as §2, §3

SMILES: COc1ccc2cc(N(C)C(=O)C3=NO[C@H]4[C@H](O)C=C[C@@H](O)[C@@]4(O)C3)c(=O)oc2c1OC [trichodermamide C]
cytotoxic activity in HeLa cells (HeLa cells): inactive

SMILES: COc1ccc(C[C@H]2NC[C@H](O)[C@H]2OC(C)=O)cc1 [Anisomycin, anisomycin, reference compound]
effect of pretreatment with pan-caspase inhibitor zVAD on drug-induced cell death (22Rv1 cells [1]): strongly inhibited

SMILES: COc1ccc2cc(NC(=O)C3=NO[C@H]4[C@H](O)C=C[C@@H](Cl)[C@@]4(O)C3)c(=O)oc2c1OC [trichodermamide B]
cytotoxic activity in HeLa cells (HeLa cells): high cytotoxic activity

SMILES: C[S+]([O-])c1ccc(-c2nc(-c3ccncc3)c(-c3ccc(F)cc3)[nH]2)cc1 (stereo not drawn) [SB203580, reference compound]
inhibition at 12.5 µM (22Rv1 cells [2]; 22Rv1, 22Rv1, inhibitor alone 12.5 μM (NB 0)): 27.6% | inhibition at 25 µM (22Rv1 cells [2]; 22Rv1, 22Rv1, inhibitor alone 25 μM (NB 0)): 39.7% | inhibition at 50 µM (22Rv1 cells [2]; 22Rv1, 22Rv1, inhibitor alone 50 μM (NB 0)): 53.3% | inhibition at 100 µM (22Rv1 cells [2]; 22Rv1, 22Rv1, inhibitor alone 100 μM (NB 0)): 63.9%

SMILES: COc1ccc2cc(NC(=O)C3=NO[C@H]4[C@H](O)C=C[C@@H](O)[C@@]4(O)C3)c(=O)oc2c1OC [trichodermamide A]
cytotoxic activity in HeLa cells (HeLa cells): inactive

SMILES: Oc1c2ccccc2c2c3c(cccc13)N=N2 [SP600125, reference compound]
inhibition at 12.5 µM (22Rv1 cells [2]; 22Rv1, inhibitor alone 12.5 μM (NB 0), read-out: Inhibition (%)): -5.92% | inhibition at 25 µM (22Rv1 cells [2]; 22Rv1, inhibitor alone 25 μM (NB 0), read-out: Inhibition (%)): 0.99% | inhibition at 50 µM (22Rv1 cells [2]; 22Rv1, inhibitor alone 50 μM (NB 0), read-out: Inhibition (%)): 19.4% | inhibition at 100 µM (22Rv1 cells [2]; 22Rv1, inhibitor alone 100 μM (NB 0), read-out: Inhibition (%)): 27.5%

IC50 (DU145): 2.2 ± 0.6 nM | IC50 (VCaP): 0.23 ± 0.22 nM | IC50 (PC3): 7.49 ± 7.09 nM | IC50 (22Rv1): 0.6 ± 0.12 nM | IC50 (PC3-DR): 325 ± 21.7 nM
SMILES: CC(=O)O[C@@]12CO[C@@H]1C[C@H](O)[C@@]1(C)C(=O)[C@H](O)C3=C(C)[C@@H](OC(=O)[C@H](O)[C@@H](NC(=O)OC(C)(C)C)c4ccccc4)C[C@@](O)([C@@H](OC(=O)c4ccccc4)[C@H]21)C3(C)C [Docetaxel, docetaxel, reference compound]
IC50 (noncancer cells): 253 nM | inhibition at 0.00625 µM (PC3-DR cells [3]; docetaxel 6.25 nM): 8.64% | inhibition at 0.025 µM (PC3-DR cells [3]; docetaxel 25 nM): 18.7% | inhibition at 0.1 µM (PC3-DR cells [3]; docetaxel 100 nM): 31% | inhibition at 0.4 µM (PC3-DR cells [3]; docetaxel 400 nM): 58.8% | IC50 (prostate cancer cells; Homo sapiens, mean over PC3, PC3-DR, DU145, 22Rv1, VCaP, LNCaP, 48 h, MTT): 56.8 nM | Selectivity Index (SI) (prostate cancer cells; [mean IC50 in noncancer cells]/[mean IC50 in cancer cells]): 4.5 | fold less sensitivity of PC3-DR compared to parental cell line (PC3-DR cells [4]): ~ 50 fold | fold more resistant compared to the parental cell line PC3 (PC3-DR cells [4]): ~ 50 fold | IC50 (HEK293): 11.5 ± 3.22 nM | IC50 (RWPE-1): 0.42 ± 0.23 nM | IC50 (PNT2): > 500 nM | IC50 (MRC-9): > 500 nM
